Assay results published in article PMC7915588, “Polyphyllin D Shows Anticancer Effect through a Selective Inhibition of Src Homology Region 2-Containing Protein Tyrosine Phosphatase-2 (SHP2)” (Molecules, 2021).

Columns and labels:
[1] = target: T1, PTPN21 (PTPD1) (Homo sapiens, UniProt Q16825); test: biochemical; parameters: Fluorogenic phosphatase assay, DiFMUP hydrolysis by recombinant PTPs, initial velocity, Ex/Em 355/460 nm; settings: read-out: Inhibition by 20 µM polyphyllin D (%)
T1 construct: 839-1174
T1 sequence (Q16825 1-1174): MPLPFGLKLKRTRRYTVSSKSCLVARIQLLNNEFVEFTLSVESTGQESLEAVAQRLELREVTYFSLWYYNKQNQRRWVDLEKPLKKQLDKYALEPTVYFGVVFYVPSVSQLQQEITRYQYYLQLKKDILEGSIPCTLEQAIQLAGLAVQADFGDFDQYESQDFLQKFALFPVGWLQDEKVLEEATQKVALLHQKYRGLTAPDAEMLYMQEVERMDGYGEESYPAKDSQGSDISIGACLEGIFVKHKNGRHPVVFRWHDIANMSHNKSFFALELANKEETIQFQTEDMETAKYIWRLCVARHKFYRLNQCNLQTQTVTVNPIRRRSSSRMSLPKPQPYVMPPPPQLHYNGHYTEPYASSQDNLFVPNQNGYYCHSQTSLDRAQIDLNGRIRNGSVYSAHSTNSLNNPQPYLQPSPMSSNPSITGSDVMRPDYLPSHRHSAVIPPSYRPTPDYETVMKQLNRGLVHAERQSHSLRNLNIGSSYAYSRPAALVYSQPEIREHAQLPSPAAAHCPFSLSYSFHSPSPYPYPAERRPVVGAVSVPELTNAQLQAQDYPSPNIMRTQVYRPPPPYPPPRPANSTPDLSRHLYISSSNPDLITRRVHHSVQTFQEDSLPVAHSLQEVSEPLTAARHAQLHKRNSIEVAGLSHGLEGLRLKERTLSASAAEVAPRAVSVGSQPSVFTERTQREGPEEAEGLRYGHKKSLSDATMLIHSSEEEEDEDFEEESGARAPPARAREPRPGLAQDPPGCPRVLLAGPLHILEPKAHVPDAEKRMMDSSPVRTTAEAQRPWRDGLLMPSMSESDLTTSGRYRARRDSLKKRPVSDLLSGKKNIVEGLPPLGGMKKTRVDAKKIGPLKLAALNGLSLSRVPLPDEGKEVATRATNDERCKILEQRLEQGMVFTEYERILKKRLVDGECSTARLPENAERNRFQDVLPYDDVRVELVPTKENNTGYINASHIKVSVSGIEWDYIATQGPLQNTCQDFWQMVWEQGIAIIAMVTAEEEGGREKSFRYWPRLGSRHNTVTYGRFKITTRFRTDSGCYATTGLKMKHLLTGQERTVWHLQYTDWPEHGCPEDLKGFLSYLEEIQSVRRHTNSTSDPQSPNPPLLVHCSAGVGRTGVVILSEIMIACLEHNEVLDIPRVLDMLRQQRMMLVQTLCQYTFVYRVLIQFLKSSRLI

[2] = target: T2, SHP2 (Homo sapiens, UniProt Q06124); test: DiFMUP fluorogenic phosphatase assay, dose-response and Hill plot; format: biochemical
T2 construct: gene PTPN11
T2 sequence (Q06124 1-526): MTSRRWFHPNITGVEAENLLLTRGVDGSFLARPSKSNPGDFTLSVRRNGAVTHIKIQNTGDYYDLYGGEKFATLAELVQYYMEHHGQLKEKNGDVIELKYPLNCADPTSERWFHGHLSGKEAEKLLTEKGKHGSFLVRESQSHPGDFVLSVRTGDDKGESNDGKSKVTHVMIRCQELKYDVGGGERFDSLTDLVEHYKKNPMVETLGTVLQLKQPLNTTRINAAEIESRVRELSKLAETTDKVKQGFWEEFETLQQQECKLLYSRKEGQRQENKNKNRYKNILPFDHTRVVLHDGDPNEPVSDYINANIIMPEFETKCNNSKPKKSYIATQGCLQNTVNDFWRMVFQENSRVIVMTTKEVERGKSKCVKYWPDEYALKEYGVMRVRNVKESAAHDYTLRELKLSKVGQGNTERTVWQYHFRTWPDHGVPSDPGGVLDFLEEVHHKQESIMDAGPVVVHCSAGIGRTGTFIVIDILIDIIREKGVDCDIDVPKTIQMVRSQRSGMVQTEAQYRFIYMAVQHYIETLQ

With C[C@@H]1CC[C@@]2(OC1)O[C@H]1C[C@H]3[C@@H]4CC=C5C[C@@H](O[C@@H]6O[C@H](CO)[C@@H](O[C@@H]7O[C@@H](CO)[C@H](O)[C@H]7O)[C@H](O)[C@H]6O[C@@H]6O[C@@H](C)[C@H](O)[C@@H](O)[C@H]6O)CC[C@]5(C)[C@H]4CC[C@]3(C)[C@H]1[C@@H]2C [polyphyllin D] the inhibition at 20 µM [1] was 20.5% and the IC50 [2] was 15.3 µM.
